Each compound was assayed against T1, AKT1 (Homo sapiens, UniProt P31749) (assay: HTS ATP-utilizing enzyme assay, off-chip mobility-shift (Caliper HTS 250)). Conditions: kinase named = inhibitory activity/selectivity; test compound 10 μM; active = greater than three-sigma from mean.
T1 construct: purchased Upstate 14-276
Assay type: biochemical
Description: The following procedures describe the reagent and plate preparation for a HTS of an ATP-utilizing enzyme, such as a protein kinase, run in an off-chip mobility-shift assay format. The following provides an HTS protocol for running a protein kinase HTS screen on a Caliper HTS 250 microfluidics system. The following parameters are dependent on the protein kinase used and can be determined by one skilled in the art as part of a typical assay development process. For example, the peptide substrate used can be identified from the current literature, by screening a peptide library of potential protein kinase substrates, or by other applicable means accepted in the field.
The following table provides typical screen assay parameters appropriate for a Caliper HTS 250 microfluidics system used to assay AKT1. Parameters used to assay other protein kinases can be determined by one skilled in the art.
Assays to determine the kinase inhibitory activity of chemical entities of the present disclosure were performed using a Caliper HTS 250 microfluidics device, Greiner U-bottom assay plates, a Multidrop for transfer of reagents, and Biomek FX (AMNCBM03) software. Initially, 2.4 μL of a 1 mM solution of a test compound in 100% DMSO was added to a well of the Greiner U-bottom plate. A single Greiner U-bottom plate having 24×16 wells could include multiple test compounds. […] Using the Biomek FX, 10 μL of 0.5 M EDTA was added by the span-8 to wells, indicated as 100% Control and 2.4 μL of 100% DMSO was added by the span-8 to wells, indicated as 0% Control. […] The total reaction volume in each well was 25 μL, and the concentration of the test compound was 10 μM. The assay plate was incubated for 2.5 hrs at 20° C. to 22° C. […] The inhibition of the ATP-utilizing enzyme, such as a particular protein kinase, was determined by measuring the ratio of the peptide substrate to phosphorylated product for each well of the assay plate using the Caliper HTS 250 system.
The use of three-sigma statistical limits represents a conservative method for declaring potential hits among targets. The three-sigma activity, as well as the mean population activity, can be different for each target enzyme.
Each chemical entity listed in Table 2 was tested for protein kinase inhibitory activity according to the biological assays and definitions of protein kinase inhibitory activity as described herein.

T1 sequence (P31749 whole entry): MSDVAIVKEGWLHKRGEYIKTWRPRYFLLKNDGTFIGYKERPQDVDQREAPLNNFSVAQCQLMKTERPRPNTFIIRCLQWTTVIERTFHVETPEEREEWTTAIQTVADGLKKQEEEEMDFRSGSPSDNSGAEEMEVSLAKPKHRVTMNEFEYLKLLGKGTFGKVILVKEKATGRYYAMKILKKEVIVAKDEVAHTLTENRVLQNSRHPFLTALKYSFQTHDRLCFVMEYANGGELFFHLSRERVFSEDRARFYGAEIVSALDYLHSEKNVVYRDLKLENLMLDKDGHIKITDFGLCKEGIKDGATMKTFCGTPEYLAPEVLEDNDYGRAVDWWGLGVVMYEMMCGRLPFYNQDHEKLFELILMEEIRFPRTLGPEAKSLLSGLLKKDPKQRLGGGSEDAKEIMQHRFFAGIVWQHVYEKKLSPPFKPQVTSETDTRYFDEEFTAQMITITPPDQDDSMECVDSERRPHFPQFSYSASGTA

Activity, AKT1:
O=C(c1cccs1)N(CCCN1CCOCC1)c1nc(C2CCCC2)cs1 [N-(4-cyclopentylthiazol-2-yl)-N-(3-morpholinopropyl)thiophene-2-carboxamide]
CN(C)C1CCN(C(=O)CCN(C(=O)c2cccs2)c2nc(-c3cc4ccccc4o3)cs2)C1 (stereo not shown) [N-(4-(benzofuran-2-yl)thiazol-2-yl)-N-(3-(3-(dimethylamino)pyrrolidin-1-yl)-3-oxopropyl)thiophene-2-carboxamide]
COc1ccc(-c2csc(N(CCCc3ccccc3)C(=O)c3cccs3)n2)cc1OC [N-(4-(3,4-dimethoxyphenyl)thiazol-2-yl)-N-(3-phenylpropyl)thiophene-2-carboxamide]
O=C(c1cccs1)N(CCCN1CCCCC1CCO)c1nc(-c2cc3ccccc3o2)cs1 (stereo not shown) [N-(4-(benzofuran-2-yl)thiazol-2-yl)-N-(3-(2-(2-hydroxyethyl)piperidin-1-yl)propyl)thiophene-2-carboxamide]
COc1ccc(-c2csc(N(CCCN3CCOCC3)C(=O)c3ccc(Cl)s3)n2)cc1 [5-chloro-N-(4-(4-methoxyphenyl)thiazol-2-yl)-N-(3-morpholinopropyl)thiophene-2-carboxamide]
Cc1cccc(C(=O)N(CCCN2CCOCC2)c2nc(-c3ccccc3)cs2)c1 [3-methyl-N-(3-morpholinopropyl)-N-(4-phenylthiazol-2-yl)benzamide]
C[S+]([O-])CCNC(=O)CCCN(C(=O)c1cccs1)c1nc(-c2cc3ccccc3o2)cs1 (stereo not shown) [N-(4-(benzofuran-2-yl)thiazol-2-yl)-N-(4-(2-(methylsulfinyl)ethylamino)-4-oxobutyl)thiophene-2-carboxamide]
CN1CCN(CCCN(C(=O)c2ccccc2)c2nc(-c3ccccc3)cs2)CC1 [N-(3-(4-methylpiperazin-1-yl)propyl)-N-(4-phenylthiazol-2-yl)benzamide]
COc1ccc(OC)c(-c2csc(N(CCCN3CCCCC3)C(=O)c3cccs3)n2)c1 [N-(4-(2,5-dimethoxyphenyl)thiazol-2-yl)-N-(3-(piperidin-1-yl)propyl)thiophene-2-carboxamide]
O=C(CCCN(C(=O)c1cccs1)c1nc(-c2cc3ccccc3o2)cs1)NCc1cccnc1 [N-(4-(benzofuran-2-yl)thiazol-2-yl)-N-(4-oxo-4-(pyridin-3-ylmethylamino)butyl)thiophene-2-carboxamide]
COc1ccc(OC)c(-c2csc(N(CCCN3CCCC3)C(=O)c3cccs3)n2)c1 [N-(4-(2,5-dimethoxyphenyl)thiazol-2-yl)-N-(3-(pyrrolidin-1-yl)propyl)thiophene-2-carboxamide]
O=C(c1cccs1)N(CCCN1CCOCC1)c1nc(-c2cc3cc([N+](=O)[O-])ccc3o2)cs1 [N-(3-morpholinopropyl)-N-(4-(5-nitrobenzofuran-2-yl)thiazol-2-yl)thiophene-2-carboxamide]
CCOC(=O)C1CCCCN1CCCN(C(=O)c1cccs1)c1nc(-c2cc3ccccc3o2)cs1 (stereo not shown) [ethyl 1-(3-(N-(4-(benzofuran-2-yl)thiazol-2-yl)thiophene-2-carboxamido)propyl)piperidine-2-carboxylate]
O=C1CN(C(=O)CCCN(C(=O)c2cccs2)c2nc(-c3cc4ccccc4o3)cs2)CCN1 [N-(4-(benzofuran-2-yl)thiazol-2-yl)-N-(4-oxo-4-(3-oxopiperazin-1-yl)butyl)thiophene-2-carboxamide]
O=C(c1cccs1)N(CCC(=O)N(CCCCO)C1CCCCC1)c1nc(-c2cc3ccccc3o2)cs1 [N-(4-(benzofuran-2-yl)thiazol-2-yl)-N-(3-(cyclohexyl(4-hydroxybutyl)amino)-3-oxopropyl)thiophene-2-carboxamide]
COc1ccc(-c2csc(N(CCCN3CCOCC3)C(=O)c3cccs3)n2)cc1 [N-(4-(4-methoxyphenyl)thiazol-2-yl)-N-(3-morpholinopropyl)thiophene-2-carboxamide]
NC(=O)C1CCCN(CCCN(C(=O)c2cccs2)c2nc(-c3cc4ccccc4o3)cs2)C1 (stereo not shown) [1-(3-(N-(4-(benzofuran-2-yl)thiazol-2-yl)thiophene-2-carboxamido)propyl)piperidine-3-carboxamide]
O=C(c1cccs1)N(CCCN1CCC(CCO)CC1)c1nc(-c2cc3ccccc3o2)cs1 [N-(4-(benzofuran-2-yl)thiazol-2-yl)-N-(3-(4-(2-hydroxyethyl)piperidin-1-yl)propyl)thiophene-2-carboxamide]
O=C(c1cccs1)N(CCCn1ccnc1)c1nc(-c2cc3ccccc3o2)cs1 [N-(3-(1H-imidazol-1-yl)propyl)-N-(4-(benzofuran-2-yl)thiazol-2-yl)thiophene-2-carboxamide]
O=C(NCCCO)c1ccc(-c2csc(N(CCCN3CCOCC3)C(=O)c3cccs3)n2)cc1 [N-(4-(4-(3-hydroxypropylcarbamoyl)phenyl)thiazol-2-yl)-N-(3-morpholinopropyl)thiophene-2-carboxamide]
NC(=O)C1CCCN1C(=O)CCN(C(=O)c1cccs1)c1nc(-c2cc3ccccc3o2)cs1 (stereo not shown) [1-(3-(N-(4-(benzofuran-2-yl)thiazol-2-yl)thiophene-2-carboxamido)propanoyl)pyrrolidine-2-carboxamide]
O=C(c1cccs1)N(CCCN1CCOCC1)c1nc(-c2ccc(OC(F)(F)F)cc2)cs1 [N-(3-morpholinopropyl)-N-(4-(4-(trifluoromethoxy)phenyl)thiazol-2-yl)thiophene-2-carboxamide]
CCOC(=O)CC(C)(C)c1csc(N(CCCN2CCOCC2)C(=O)c2cccs2)n1 [ethyl 3-methyl-3-(2-(N-(3-morpholinopropyl)thiophene-2-carboxamido)thiazol-4-yl)butanoate]
CC(=O)N1CCN(CCCN(C(=O)c2cccs2)c2nc(-c3cc4ccccc4o3)cs2)CC1 [N-(3-(4-acetylpiperazin-1-yl)propyl)-N-(4-(benzofuran-2-yl)thiazol-2-yl)thiophene-2-carboxamide]
CC(=O)NCCCN(C(=O)c1cccs1)c1nc(-c2cc3ccccc3o2)cs1 [N-(3-acetamidopropyl)-N-(4-(benzofuran-2-yl)thiazol-2-yl)thiophene-2-carboxamide]
O=C(c1cccs1)N(CCCN1CCOCC1)c1nc(-c2cccc(Cl)c2)cs1 [N-(4-(3-chlorophenyl)thiazol-2-yl)-N-(3-morpholinopropyl)thiophene-2-carboxamide]
CS(=O)(=O)c1ccc2c(c1)CCN2C(=O)CCCN(C(=O)c1cccs1)c1nc(-c2cc3ccccc3o2)cs1 [N-(4-(benzofuran-2-yl)thiazol-2-yl)-N-(4-(5-(methylsulfonyl)indolin-1-yl)-4-oxobutyl)thiophene-2-carboxamide]
CN1CCN(CCCN(C(=O)c2ccco2)c2nc(-c3cc(-c4ccccc4)no3)cs2)CC1 [N-(3-(4-methylpiperazin-1-yl)propyl)-N-(4-(3-phenylisoxazol-5-yl)thiazol-2-yl)furan-2-carboxamide]
CCOC(=O)CN1CCN(CCCN(C(=O)c2cccs2)c2nc(-c3cc4ccccc4o3)cs2)CC1 [ethyl 2-(4-(3-(N-(4-(benzofuran-2-yl)thiazol-2-yl)thiophene-2-carboxamido)propyl)piperazin-1-yl)acetate]
CN(CCO)C(=O)CCN(C(=O)c1cccs1)c1nc(-c2cc3ccccc3o2)cs1 [N-(4-(benzofuran-2-yl)thiazol-2-yl)-N-(3-((2-hydroxyethyl)(methyl)amino)-3-oxopropyl)thiophene-2-carboxamide]
O=C(c1cccs1)N(CCCN1CCOCC1)c1nc(-c2ccccc2C(F)(F)F)cs1 [N-(3-morpholinopropyl)-N-(4-(2-(trifluoromethyl)phenyl)thiazol-2-yl)thiophene-2-carboxamide]
COc1ccc(OC)c(-c2csc(N(CCCN3CCCC3)C(=O)c3ccco3)n2)c1 [N-(4-(2,5-dimethoxyphenyl)thiazol-2-yl)-N-(3-(pyrrolidin-1-yl)propyl)furan-2-carboxamide]
O=C(CCCN(C(=O)c1cccs1)c1nc(-c2cc3ccccc3o2)cs1)N(CCO)c1ccccc1 [N-(4-(benzofuran-2-yl)thiazol-2-yl)-N-(4-((2-hydroxyethyl)(phenyl)amino)-4-oxobutyl)thiophene-2-carboxamide]
COc1ccc(OC)c(-c2csc(N(CCCN3CCCCC3)C(=O)c3ccco3)n2)c1 [N-(4-(2,5-dimethoxyphenyl)thiazol-2-yl)-N-(3-(piperidin-1-yl)propyl)furan-2-carboxamide]

Reference: patent publication US7795290B2 (Genentech, Inc., priority 2004, dated 2010)
